SMILES strings stand for the structures. Where two headings read alike, the source gives them in different places.

The record followed here is article PMC9692855, “Amaryllidaceae Alkaloids from Clivia miniata (Lindl.) Bosse (Amaryllidaceae): Isolation, Structural Elucidation, and Biological Activity” (Plants, 2022).

In assay [1] the target is human plasma BuChE (E.C. 3.1.1.8) (Homo sapiens, UniProt P06276). Put plainly: biochemical. Conditions: for inhibition at 100 µM: read-out: % Inhibition hBuChE ± SEM.
Chain of human plasma BuChE (E.C. 3.1.1.8) (P06276 29-602): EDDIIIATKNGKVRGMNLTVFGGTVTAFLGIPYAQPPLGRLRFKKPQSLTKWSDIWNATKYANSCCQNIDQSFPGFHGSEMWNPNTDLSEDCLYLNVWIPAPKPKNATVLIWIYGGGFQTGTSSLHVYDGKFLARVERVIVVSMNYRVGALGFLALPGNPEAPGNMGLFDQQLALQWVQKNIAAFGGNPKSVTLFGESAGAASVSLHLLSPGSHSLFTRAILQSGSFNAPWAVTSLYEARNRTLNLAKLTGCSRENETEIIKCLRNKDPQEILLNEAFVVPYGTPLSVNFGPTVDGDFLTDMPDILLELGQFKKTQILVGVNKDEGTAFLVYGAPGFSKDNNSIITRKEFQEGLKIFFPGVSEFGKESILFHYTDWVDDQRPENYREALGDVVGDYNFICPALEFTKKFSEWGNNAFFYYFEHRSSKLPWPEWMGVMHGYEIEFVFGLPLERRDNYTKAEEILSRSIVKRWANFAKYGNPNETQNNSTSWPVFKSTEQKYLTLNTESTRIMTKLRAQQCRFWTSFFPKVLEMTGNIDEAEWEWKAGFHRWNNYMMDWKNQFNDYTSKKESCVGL
The target in assay [2] is human recombinant AChE (E.C. 3.1.1.7) (Homo sapiens, UniProt P22303). Put plainly: biochemical. Conditions: for inhibition at 100 µM: read-out: % Inhibition hAChE ± SEM.
Chain of human recombinant AChE (E.C. 3.1.1.7) (P22303 32-614): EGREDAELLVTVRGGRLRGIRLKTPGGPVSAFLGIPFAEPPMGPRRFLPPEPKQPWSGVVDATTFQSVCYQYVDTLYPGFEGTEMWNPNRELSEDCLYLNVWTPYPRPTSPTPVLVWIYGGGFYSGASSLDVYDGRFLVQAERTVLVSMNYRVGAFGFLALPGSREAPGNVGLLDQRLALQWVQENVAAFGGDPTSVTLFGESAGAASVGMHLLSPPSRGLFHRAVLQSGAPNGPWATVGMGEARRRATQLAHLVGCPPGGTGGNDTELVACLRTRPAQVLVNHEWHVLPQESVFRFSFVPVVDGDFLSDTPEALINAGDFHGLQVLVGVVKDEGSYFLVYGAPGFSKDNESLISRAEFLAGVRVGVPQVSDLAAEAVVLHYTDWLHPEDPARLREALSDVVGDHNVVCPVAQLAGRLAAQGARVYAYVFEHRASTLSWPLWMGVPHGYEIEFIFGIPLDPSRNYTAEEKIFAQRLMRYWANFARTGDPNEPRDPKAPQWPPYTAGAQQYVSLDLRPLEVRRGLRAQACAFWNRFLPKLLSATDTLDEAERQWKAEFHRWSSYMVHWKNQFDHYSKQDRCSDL
Setting [3] is: mean ± SEM of three independent measurements, each in triplicate, read-out: IC50 hBuChE ± SEM.
The mark [4] stands for this setting: tested at 100 µM compound concentration.
[5] abbreviates: mean ± SEM of three independent measurements, each in triplicate, read-out: IC50 hAChE ± SEM.

Take `COc1cc2c(cc1O)CN1CCC23C=CC(OC(C)=O)CC13` (centres unmarked) [3-O-acetyl-8-O-demethylmaritidine (12), 3-O-acetyl-8-O-demethylmaritidine]: in assay [1], the IC50 is greater than 100 µM and the inhibition at 100 µM came out at 10.3 ± 2.06%. In assay [2], the IC50 is greater than 100 µM and the inhibition at 100 µM was 12.3 ± 1.29%.

As to `COC(=O)c1cc(C(=O)O[C@H]2C[C@H]3CCN(C)[C@H]3[C@@H]3c4cc5c(cc4C(=O)O[C@H]32)OCO5)c(C)nc1C` [cliniatine C (4), cliniatine C], the IC50 in assay [1] (setting [3]) and in assay [2] (setting [5]) was greater than 100 µM in each case. The results for the inhibition at 100 µM in assay [1] (setting [4]) and in assay [2] (setting [4]) were 9.43 ± 1.23% and 5.72 ± 0.53%, respectively.

Take `Cc1nc(C)c(C(=O)O[C@H]2C[C@H]3CCN(C)[C@H]3[C@@H]3c4cc5c(cc4C(=O)O[C@H]32)OCO5)cc1C(=O)O[C@H]1C[C@H]2CCN(C)[C@H]2[C@@H]2c3cc4c(cc3C(=O)O[C@H]21)OCO4` [clivimine (2), clivimine]: the IC50 in assay [1] (setting [3]) and in assay [2] (setting [5]) was greater than 100 µM each time. Also, the results for the inhibition at 100 µM in assay [1] (setting [4]) and in assay [2] (setting [4]) were 15.2 ± 8.23% and 9.62 ± 1.75%, respectively.

On to `Cc1nc(C)c(C(=O)OC2CC3CCN(C)C3C3c4cc5c(cc4C(=O)OC23)OCO5)cc1C(=O)OC1CC2CCN(C)C2c2c1oc(=O)c1cc3c(cc21)OCO3` (centres unmarked) [clivimine B (3), clivimine B], for which the IC50 in assay [1] (setting [3]) and in assay [2] (setting [5]) was greater than 100 µM in each case. The inhibition at 100 µM worked out at 7.69 ± 2.56% in assay [1] (setting [4]) and 10.1 ± 5.37% in assay [2] (setting [4]).

Take `CN1CC[C@@H]2C[C@H](O)[C@@H]3OC(=O)c4cc5c(cc4[C@H]3[C@@H]21)OCO5` [clivonine (6), clivonine]: the IC50 in assay [1] and in assay [2] was greater than 100 µM throughout. Besides, the inhibition at 100 µM in assay [1] worked out at 28.2 ± 6.63%; in assay [2] it was 34.4 ± 1.68%.

Turning to `COc1ccc2c3c1O[C@H]1C[C@@H](O)C=C[C@@]31CCN(C)C2` [galanthamine, reference compound], the inhibition at 100 µM in assay [1] is 68.2 ± 1.24%.

In the case of `CC(O)CC(=O)O[C@H]1C[C@H]2CCN(C)[C@H]2[C@@H]2c3cc4c(cc3C(=O)O[C@H]21)OCO4` (some centres unmarked) [nobilisitine B (14), nobilisitine B], the IC50 in assay [1] (setting [3]) and in assay [2] (setting [5]) was greater than 100 µM throughout. Also, the inhibition at 100 µM in assay [1] (setting [4]) was found to be 12.6 ± 0.53%; in assay [2] (setting [4]), 40 ± 1.13%.

`COc1cc2c(cc1O)C(=O)N1CCC3=C[C@H](O)[C@@H](OC(C)=O)[C@@H]2[C@@H]31` [sternbergine (17), sternbergine]: the IC50 in assay [1] (setting [3]) and in assay [2] (read-out: IC50 hAChE ± SEM) was greater than 100 µM in each case. Besides, the values for the inhibition at 100 µM in assay [1] and in assay [2] were 23.5 ± 2.28% and 1.25 ± 0.23%, respectively.

The IC50 is the point on the concentration scale where inhibition reaches its midpoint. For orientation: inhibition means the change of the read-out against control, counted positive when it falls.
